According to PMC5596636 (ACS chemical neuroscience, 2016):

Experiments:
mMC4R = mMC4R (Mus musculus, UniProt P56450); assay: cAMP-based β-galactosidase reporter agonist assay in HEK293 cells, mMC4R; conditions: potency loss
mMC3R = mMC3R (Mus musculus, UniProt P33033); assay: cAMP-based β-galactosidase reporter agonist assay in HEK293 cells, mMC3R; conditions: for mMC3R fold difference: EC50 of substituted peptide divided by EC50 of NDP-MSH, potency loss
mMC1R [1] = molecular target: T1, mMC1R (Mus musculus, UniProt Q01727); assay: cAMP-based β-galactosidase reporter agonist assay in HEK293 cells, mMC1R; conditions: potency loss
T1 sequence (Q01727 whole entry): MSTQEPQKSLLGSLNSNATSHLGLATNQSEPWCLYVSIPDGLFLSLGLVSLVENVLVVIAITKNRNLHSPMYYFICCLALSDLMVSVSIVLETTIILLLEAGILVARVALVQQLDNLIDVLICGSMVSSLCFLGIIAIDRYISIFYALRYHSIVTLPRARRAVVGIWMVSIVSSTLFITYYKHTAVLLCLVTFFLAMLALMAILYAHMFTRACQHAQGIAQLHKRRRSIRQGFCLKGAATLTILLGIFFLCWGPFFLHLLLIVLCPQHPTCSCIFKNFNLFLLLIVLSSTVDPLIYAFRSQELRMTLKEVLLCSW

mMC5R = mMC5R (Mus musculus, UniProt P41149); assay: cAMP-based β-galactosidase reporter agonist assay in HEK293 cells, mMC5R; conditions: potency loss
Sequence of mMC5R (P41149 whole entry): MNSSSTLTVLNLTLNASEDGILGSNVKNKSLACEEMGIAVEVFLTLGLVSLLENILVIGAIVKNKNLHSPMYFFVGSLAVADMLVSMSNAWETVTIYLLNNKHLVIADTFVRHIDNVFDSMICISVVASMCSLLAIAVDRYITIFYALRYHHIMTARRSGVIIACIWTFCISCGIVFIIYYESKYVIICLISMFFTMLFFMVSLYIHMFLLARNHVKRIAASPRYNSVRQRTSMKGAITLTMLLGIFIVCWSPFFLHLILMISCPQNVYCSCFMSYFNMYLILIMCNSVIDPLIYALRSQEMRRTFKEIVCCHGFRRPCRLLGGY

mMC1R [2] = molecular target: T1, mMC1R; conditions: B16 murine melanoma cells; relative to α-MSH; cited from earlier work
mMC1R [3] = molecular target: T1, mMC1R; conditions: B16 murine melanoma cells; relative to α-MSH; cited from earlier work; remark: listed apart in the source
rMC3R = conditions: HEK293 cells expressing the rMC3R; relative to α-MSH; cited from earlier work
[4] = EC50 of substituted peptide divided by EC50 of NDP-MSH
[5] = EC50 of substituted peptide divided by EC50 of α-MSH

Sequence of mMC3R (P33033 whole entry): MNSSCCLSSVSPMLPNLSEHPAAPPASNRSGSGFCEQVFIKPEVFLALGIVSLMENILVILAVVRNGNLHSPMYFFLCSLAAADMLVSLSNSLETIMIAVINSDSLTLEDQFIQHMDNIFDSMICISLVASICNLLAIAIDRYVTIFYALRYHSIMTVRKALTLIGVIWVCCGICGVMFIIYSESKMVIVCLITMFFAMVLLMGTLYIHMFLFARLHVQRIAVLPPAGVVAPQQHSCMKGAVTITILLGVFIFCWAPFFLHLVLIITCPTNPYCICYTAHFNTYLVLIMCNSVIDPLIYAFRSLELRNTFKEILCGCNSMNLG
Sequence of mMC4R (P56450 whole entry): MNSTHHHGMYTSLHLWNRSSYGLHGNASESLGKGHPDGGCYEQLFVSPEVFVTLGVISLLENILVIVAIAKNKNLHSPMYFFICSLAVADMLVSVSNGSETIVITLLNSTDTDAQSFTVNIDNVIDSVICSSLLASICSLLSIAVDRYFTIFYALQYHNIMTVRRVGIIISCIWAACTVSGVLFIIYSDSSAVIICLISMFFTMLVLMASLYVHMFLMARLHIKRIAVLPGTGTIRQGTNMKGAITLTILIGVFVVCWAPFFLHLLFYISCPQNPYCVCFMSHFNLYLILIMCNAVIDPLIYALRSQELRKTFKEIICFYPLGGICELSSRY

Row | Compound | mMC4R fold difference (mMC4R; [4]) | EC50 (mMC3R) [nM] | mMC3R fold difference (mMC3R) | mMC1R fold difference (mMC1R [1]; [4]) | mMC5R fold difference (mMC5R; [4]) | other results
1 | CSCC[C@H](NC(=O)[C@H](CO)NC(=O)[C@H](C)NC(=O)[C@H](CO)NC(C)=O)C(=O)N[C@@H](CCC(=O)O)C(=O)N[C@@H](Cc1c[nH]cn1)C(=O)N[C@@H](Cc1ccccc1)C(=O)N[C@@H](CCCNC(=N)N)C(=O)N[C@@H](Cc1c[nH]c2ccccc12)C(=O)NCC(=O)N[C@@H](CCCCN)C(=O)N1CCC[C@H]1C(=O)N[C@H](C(N)=O)C(C)C [[Ala^2]α-MSH] |  | 6.42 ± 2.56 |  |  |  | fold decreased binding affinity at the mMC1R (mMC1R [2]): equipotent; fold more potent at the mMC3R compared to α-MSH (mMC3R; increased potency relative to α-MSH): 4 fold; fold decreased tyrosinase potency at the mMC1R (mMC1R [3]): equipotent; mMC1R fold difference (mMC1R [1]; [5]): 7 fold; fold decreased binding affinity at the rMC3R (rMC3R): 7 fold
2 | CCCC[C@H](NC(=O)[C@H](CO)NC(=O)[C@H](C)NC(=O)[C@H](CO)NC(C)=O)C(=O)N[C@@H](CCC(=O)O)C(=O)N[C@@H](Cc1c[nH]cn1)C(=O)N[C@H](Cc1ccccc1)C(=O)N[C@@H](CCCNC(=N)N)C(=O)N[C@@H](Cc1c[nH]c2ccccc12)C(=O)NCC(=O)N[C@@H](CCCCN)C(=O)N1CCC[C@H]1C(=O)N[C@H](C(N)=O)C(C)C [[Ala^2]NDP-MSH, Ac-Ser-Ala-Ser-Nle-Glu-His-DPhe-Arg-Trp-Gly-Lys-Pro-Val-NH2] |  | 0.22 ± 0.06 |  |  |  | 
3 | CSCC[C@H](NC(=O)[C@H](CO)NC(=O)[C@H](Cc1ccc(O)cc1)NC(=O)[C@H](CO)NC(C)=O)C(=O)N[C@@H](CCC(=O)O)C(=O)N[C@@H](Cc1c[nH]cn1)C(=O)N[C@@H](C)C(=O)N[C@@H](CCCNC(=N)N)C(=O)N[C@@H](Cc1c[nH]c2ccccc12)C(=O)NCC(=O)N[C@@H](CCCCN)C(=O)N1CCC[C@H]1C(=O)N[C@H](C(N)=O)C(C)C [[Ala^7]α-MSH] |  | 1660 ± 825 |  |  |  | mMC4R fold difference (mMC4R; [5]): 190 fold; fold decreased binding affinity at the mMC1R (mMC1R [2]): 500 fold; fold decreased tyrosinase potency at the mMC1R (mMC1R [3]): 260 fold; mMC1R fold difference (mMC1R [1]; [5]): 200 fold; fold decreased binding affinity at the rMC3R (rMC3R): 91 fold; mMC5R fold difference (mMC5R; [5]): 210 fold
4 | CCCC[C@H](NC(=O)[C@H](CO)NC(=O)[C@H](Cc1ccc(O)cc1)NC(=O)[C@H](CO)NC(C)=O)C(=O)N[C@@H](CCC(=O)O)C(=O)N[C@@H](Cc1c[nH]cn1)C(=O)N[C@@H](C)C(=O)N[C@@H](CCCNC(=N)N)C(=O)N[C@@H](Cc1c[nH]c2ccccc12)C(=O)NCC(=O)N[C@@H](CCCCN)C(=O)N1CCC[C@H]1C(=O)N[C@H](C(N)=O)C(C)C [[Ala^7]NDP-MSH] | 2370 fold | 260 ± 64 | 1080 fold | 2350 fold | 180 fold | 
5 | CCCC[C@H](NC(=O)[C@H](CO)NC(=O)[C@H](Cc1ccc(O)cc1)NC(=O)[C@H](CO)NC(C)=O)C(=O)N[C@@H](CCC(=O)O)C(=O)N[C@@H](Cc1c[nH]cn1)C(=O)N[C@H](Cc1ccccc1)C(=O)N[C@@H](CCCNC(=N)N)C(=O)N[C@@H](Cc1c[nH]c2ccccc12)C(=O)N[C@@H](C)C(=O)N[C@@H](CCCCN)C(=O)N1CCC[C@H]1C(=O)N[C@H](C(N)=O)C(C)C [[Ala^10]NDP-MSH, Ac-Ser-Tyr-Ser-Nle-Glu-His-DPhe-Arg-Trp-Ala-Lys-Pro-Val-NH2] | unaltered | 0.13 ± 0.06 | unaltered | unaltered | unaltered | 
6 | CCCC[C@H](NC(=O)[C@H](CO)NC(=O)[C@H](Cc1ccc(O)cc1)NC(=O)[C@H](C)NC(C)=O)C(=O)N[C@@H](CCC(=O)O)C(=O)N[C@@H](Cc1c[nH]cn1)C(=O)N[C@H](Cc1ccccc1)C(=O)N[C@@H](CCCNC(=N)N)C(=O)N[C@@H](Cc1c[nH]c2ccccc12)C(=O)NCC(=O)N[C@@H](CCCCN)C(=O)N1CCC[C@H]1C(=O)N[C@H](C(N)=O)C(C)C [[Ala^1]NDP-MSH, Ac-Ala-Tyr-Ser-Nle-Glu-His-DPhe-Arg-Trp-Gly-Lys-Pro-Val-NH2] |  | 0.16 ± 0.017 |  |  |  | 
7 | CC(=O)N[C@@H](CO)C(=O)N[C@@H](Cc1ccc(O)cc1)C(=O)N[C@@H](CO)C(=O)N[C@@H](C)C(=O)N[C@@H](CCC(=O)O)C(=O)N[C@@H](Cc1c[nH]cn1)C(=O)N[C@H](Cc1ccccc1)C(=O)N[C@@H](CCCNC(=N)N)C(=O)N[C@@H](Cc1c[nH]c2ccccc12)C(=O)NCC(=O)N[C@@H](CCCCN)C(=O)N1CCC[C@H]1C(=O)N[C@H](C(N)=O)C(C)C [[Ala^4]NDP-MSH, Ac-Ser-Tyr-Ser-Ala-Glu-His-DPhe-Arg-Trp-Gly-Lys-Pro-Val-NH2] | no differences | 0.36 ± 0.04 | no differences | 5 fold | no differences | 
8 | CCCC[C@H](NC(=O)[C@H](C)NC(=O)[C@H](Cc1ccc(O)cc1)NC(=O)[C@H](CO)NC(C)=O)C(=O)N[C@@H](CCC(=O)O)C(=O)N[C@@H](Cc1c[nH]cn1)C(=O)N[C@H](Cc1ccccc1)C(=O)N[C@@H](CCCNC(=N)N)C(=O)N[C@@H](Cc1c[nH]c2ccccc12)C(=O)NCC(=O)N[C@@H](CCCCN)C(=O)N1CCC[C@H]1C(=O)N[C@H](C(N)=O)C(C)C [[Ala^3]NDP-MSH, Ac-Ser-Tyr-Ala-Nle-Glu-His-DPhe-Arg-Trp-Gly-Lys-Pro-Val-NH2] |  | 0.34 ± 0.08 |  |  |  | 

Second part, led by results:

Row | mMC4R fold difference (mMC4R; [4]) | EC50 (mMC3R) [nM] | mMC3R fold difference (mMC3R) | mMC1R fold difference (mMC1R [1]; [4]) | mMC5R fold difference (mMC5R; [4]) | Compound | other results
9 | unaltered | 0.17 ± 0.02 | unaltered | unaltered | unaltered | CCCC[C@H](NC(=O)[C@H](CO)NC(=O)[C@H](Cc1ccc(O)cc1)NC(=O)[C@H](CO)NC(C)=O)C(=O)N[C@@H](CCC(=O)O)C(=O)N[C@@H](Cc1c[nH]cn1)C(=O)N[C@H](Cc1ccccc1)C(=O)N[C@@H](CCCNC(=N)N)C(=O)N[C@@H](Cc1c[nH]c2ccccc12)C(=O)NCC(=O)N[C@@H](C)C(=O)N1CCC[C@H]1C(=O)N[C@H](C(N)=O)C(C)C [[Ala^11]NDP-MSH, Ac-Ser-Tyr-Ser-Nle-Glu-His-DPhe-Arg-Trp-Gly-Ala-Pro-Val-NH2] | 
10 |  | 33 ± 11 |  |  |  | CSCC[C@H](NC(=O)[C@H](CO)NC(=O)[C@H](Cc1ccc(O)cc1)NC(=O)[C@H](CO)NC(C)=O)C(=O)N[C@@H](CCC(=O)O)C(=O)N[C@@H](Cc1c[nH]cn1)C(=O)N[C@@H](Cc1ccccc1)C(=O)N[C@@H](CCCNC(=N)N)C(=O)N[C@@H](Cc1c[nH]c2ccccc12)C(=O)N[C@@H](C)C(=O)N[C@@H](CCCCN)C(=O)N1CCC[C@H]1C(=O)N[C@H](C(N)=O)C(C)C [[Ala^10]α-MSH] | 
11 |  | 49 ± 33 |  |  |  | CSCC[C@H](NC(=O)[C@H](CO)NC(=O)[C@H](Cc1ccc(O)cc1)NC(=O)[C@H](CO)NC(C)=O)C(=O)N[C@@H](CCC(=O)O)C(=O)N[C@@H](Cc1c[nH]cn1)C(=O)N[C@@H](Cc1ccccc1)C(=O)N[C@@H](CCCNC(=N)N)C(=O)N[C@@H](Cc1c[nH]c2ccccc12)C(=O)NCC(=O)N[C@@H](C)C(=O)N1CCC[C@H]1C(=O)N[C@H](C(N)=O)C(C)C [[Ala^11]α-MSH] | 
12 | unaltered | 0.3 ± 0.06 | unaltered | unaltered | unaltered | CCCC[C@H](NC(=O)[C@H](CO)NC(=O)[C@H](Cc1ccc(O)cc1)NC(=O)[C@H](CO)NC(C)=O)C(=O)N[C@@H](CCC(=O)O)C(=O)N[C@@H](Cc1c[nH]cn1)C(=O)N[C@H](Cc1ccccc1)C(=O)N[C@@H](CCCNC(=N)N)C(=O)N[C@@H](Cc1c[nH]c2ccccc12)C(=O)NCC(=O)N[C@@H](CCCCN)C(=O)N1CCC[C@H]1C(=O)N[C@@H](C)C(N)=O [[Ala^13]NDP-MSH, Ac-Ser-Tyr-Ser-Nle-Glu-His-DPhe-Arg-Trp-Gly-Lys-Pro-Ala-NH2] | 
13 | 5 fold | 0.36 ± 0.06 |  | 4 fold |  | CCCC[C@H](NC(=O)[C@H](CO)NC(=O)[C@H](Cc1ccc(O)cc1)NC(=O)[C@H](CO)NC(C)=O)C(=O)N[C@@H](CCC(=O)O)C(=O)N[C@@H](Cc1c[nH]cn1)C(=O)N[C@H](Cc1ccccc1)C(=O)N[C@@H](CCCNC(=N)N)C(=O)N[C@@H](Cc1c[nH]c2ccccc12)C(=O)NCC(=O)N[C@@H](CCCCN)C(=O)N[C@@H](C)C(=O)N[C@H](C(N)=O)C(C)C [[Ala^12]NDP-MSH, Ac-Ser-Tyr-Ser-Nle-Glu-His-DPhe-Arg-Trp-Gly-Lys-Ala-Val-NH2] | 
14 |  | 43 ± 14 |  |  |  | CSCC[C@H](NC(=O)[C@H](CO)NC(=O)[C@H](Cc1ccc(O)cc1)NC(=O)[C@H](CO)NC(C)=O)C(=O)N[C@@H](CCC(=O)O)C(=O)N[C@@H](Cc1c[nH]cn1)C(=O)N[C@@H](Cc1ccccc1)C(=O)N[C@@H](CCCNC(=N)N)C(=O)N[C@@H](Cc1c[nH]c2ccccc12)C(=O)NCC(=O)N[C@@H](CCCCN)C(=O)N[C@@H](C)C(=O)N[C@H](C(N)=O)C(C)C [[Ala^12]α-MSH] | fold decreased binding affinity at the mMC1R (mMC1R [2]): 10 fold
15 |  | 42 ± 26 |  |  |  | CSCC[C@H](NC(=O)[C@H](CO)NC(=O)[C@H](Cc1ccc(O)cc1)NC(=O)[C@H](CO)NC(C)=O)C(=O)N[C@@H](CCC(=O)O)C(=O)N[C@@H](Cc1c[nH]cn1)C(=O)N[C@@H](Cc1ccccc1)C(=O)N[C@@H](CCCNC(=N)N)C(=O)N[C@@H](Cc1c[nH]c2ccccc12)C(=O)NCC(=O)N[C@@H](CCCCN)C(=O)N1CCC[C@H]1C(=O)N[C@@H](C)C(N)=O [[Ala^13]α-MSH] | 
